Values of other authors as cited in US20070293552A1, “ANTIHYPERTENSIVE THERAPY METHOD” (priority 2006, published 2007).

Biological target: T1, ETA (Homo sapiens, UniProt P25101)
T1 sequence (P25101 21-427): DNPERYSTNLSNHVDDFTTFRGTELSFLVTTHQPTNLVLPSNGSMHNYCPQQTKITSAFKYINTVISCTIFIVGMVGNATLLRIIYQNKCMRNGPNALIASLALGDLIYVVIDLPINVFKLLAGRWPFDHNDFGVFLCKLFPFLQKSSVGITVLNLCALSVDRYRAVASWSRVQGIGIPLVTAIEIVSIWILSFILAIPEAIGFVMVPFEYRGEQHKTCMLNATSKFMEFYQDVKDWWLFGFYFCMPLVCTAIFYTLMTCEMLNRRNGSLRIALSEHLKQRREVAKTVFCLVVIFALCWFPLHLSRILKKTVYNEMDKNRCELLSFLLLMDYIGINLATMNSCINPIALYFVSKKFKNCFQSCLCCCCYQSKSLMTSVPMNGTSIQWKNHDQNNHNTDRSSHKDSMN
Conditions: selectivity for ETA over ETB; reported by Wu et al. (2004) J. Med. Chem. 47, 1969-1986

ETA/ETB selectivity factor: 441×10^3
Compound: CC(=O)c1cc(C)cc(C)c1NC(=O)c1sccc1S(=O)(=O)Nc1onc(C)c1C [TBC3711, N-(2-acetyl-4,6-dimethylphenyl)-3-(3,4-dimethylisoxazol-5-ylsulfamoyl)-thiophene-2-carboxamide]
